We go through 26 compounds from patent US12344595B2, “2-amino-n-phenyl-nicotinamides as NAV1.8 inhibitors” (Merck Sharp & Dohme LLC, priority 2018, dated 2025).

Molecules are shown by their SMILES. pIC50: −log10 of the molar value.

Broadly, the pIC50 is the IC50 on a negative log10 scale, so that one unit is a factor of ten. A high value points to a low IC50.

Chain of human Nav1.8 (Q9Y5Y9 whole entry): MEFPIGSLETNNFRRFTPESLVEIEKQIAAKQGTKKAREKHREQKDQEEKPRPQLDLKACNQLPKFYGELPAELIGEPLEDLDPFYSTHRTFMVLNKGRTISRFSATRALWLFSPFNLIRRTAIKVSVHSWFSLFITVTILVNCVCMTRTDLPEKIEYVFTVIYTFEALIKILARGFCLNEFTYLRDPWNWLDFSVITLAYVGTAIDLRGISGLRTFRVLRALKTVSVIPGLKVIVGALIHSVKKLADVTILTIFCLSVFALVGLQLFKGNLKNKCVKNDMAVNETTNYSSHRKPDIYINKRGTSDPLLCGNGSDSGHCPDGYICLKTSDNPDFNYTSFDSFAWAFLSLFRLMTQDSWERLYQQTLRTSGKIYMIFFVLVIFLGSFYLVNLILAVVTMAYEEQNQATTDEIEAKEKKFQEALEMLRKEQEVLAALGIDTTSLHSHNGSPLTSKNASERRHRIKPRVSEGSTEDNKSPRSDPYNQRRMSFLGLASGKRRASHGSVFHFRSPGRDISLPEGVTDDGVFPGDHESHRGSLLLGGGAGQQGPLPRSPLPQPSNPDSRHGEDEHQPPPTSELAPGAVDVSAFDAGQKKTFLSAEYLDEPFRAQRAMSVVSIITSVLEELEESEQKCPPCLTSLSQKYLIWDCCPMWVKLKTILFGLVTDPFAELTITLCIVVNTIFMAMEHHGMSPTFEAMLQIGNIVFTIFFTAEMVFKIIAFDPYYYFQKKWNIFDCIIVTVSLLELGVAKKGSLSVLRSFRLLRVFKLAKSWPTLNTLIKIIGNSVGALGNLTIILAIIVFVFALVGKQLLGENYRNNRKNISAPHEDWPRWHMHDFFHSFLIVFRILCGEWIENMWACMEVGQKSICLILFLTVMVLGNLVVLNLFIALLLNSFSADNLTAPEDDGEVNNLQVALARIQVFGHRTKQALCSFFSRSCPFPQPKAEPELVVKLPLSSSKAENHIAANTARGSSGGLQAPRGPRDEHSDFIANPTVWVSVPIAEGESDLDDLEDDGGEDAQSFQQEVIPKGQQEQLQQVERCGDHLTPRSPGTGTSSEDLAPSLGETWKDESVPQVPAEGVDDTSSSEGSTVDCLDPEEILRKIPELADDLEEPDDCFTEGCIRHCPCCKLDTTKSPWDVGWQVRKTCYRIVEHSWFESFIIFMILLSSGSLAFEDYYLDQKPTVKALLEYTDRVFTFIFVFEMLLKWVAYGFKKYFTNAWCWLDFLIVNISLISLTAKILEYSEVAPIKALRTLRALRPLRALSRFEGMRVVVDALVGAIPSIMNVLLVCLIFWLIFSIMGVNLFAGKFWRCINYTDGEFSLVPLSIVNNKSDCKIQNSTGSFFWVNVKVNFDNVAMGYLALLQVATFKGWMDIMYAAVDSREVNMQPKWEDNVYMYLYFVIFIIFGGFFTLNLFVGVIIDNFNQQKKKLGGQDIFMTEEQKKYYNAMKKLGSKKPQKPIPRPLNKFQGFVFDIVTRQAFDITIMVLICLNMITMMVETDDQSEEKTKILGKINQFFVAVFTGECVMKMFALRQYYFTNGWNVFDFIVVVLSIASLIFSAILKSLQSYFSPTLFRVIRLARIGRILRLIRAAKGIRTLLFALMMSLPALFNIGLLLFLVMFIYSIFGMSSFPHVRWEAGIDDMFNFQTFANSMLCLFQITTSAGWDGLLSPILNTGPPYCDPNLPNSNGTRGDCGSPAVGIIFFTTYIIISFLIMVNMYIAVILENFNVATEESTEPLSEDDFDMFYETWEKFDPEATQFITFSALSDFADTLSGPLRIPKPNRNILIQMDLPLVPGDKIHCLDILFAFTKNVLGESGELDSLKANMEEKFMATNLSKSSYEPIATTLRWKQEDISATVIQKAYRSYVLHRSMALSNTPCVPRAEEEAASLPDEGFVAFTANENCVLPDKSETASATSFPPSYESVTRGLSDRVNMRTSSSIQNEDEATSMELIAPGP

The assay addresses human Nav1.8 (Homo sapiens (Human), UniProt Q9Y5Y9). In words: Nav1.8 Qube automated patch-clamp assay. It counts as cell-based. Particulars: Nav1.8 Qube Assay; human Nav1.8 channels stably expressed in HEK 293 cells. The protocol: Qube® Assay Experimental Procedure
Compounds were tested on human Nav1.8 and Nav1.5 channels stably expressed in human embryo kidney (HEK) 293 cells. Sodium current measurements on Qube® were conducted as follows: automated 384-well patch-clamp assays on the Qube® platform (Sophion Biosciences) were used to measure the inhibition of sodium flow through human Nav1.8 and Nav1.5 channels. Whole-cell voltage-clamp recordings were performed in QChips® (Sophion Biosciences) at room temperature. Nav1.8 current measurements on Qube® were obtained as follows: Nav1.8 currents were elicited with a 10 second 1 Hertz (Hz) pulse train from a holding potential of −90 millivolts (mV), delivered to the cells once per minute in the control condition (DMSO only) and after compound addition. The 1 hertz pulse train stimulation consisted of ten test pulses to 10 millivolt (mV) for 20 milliseconds (ms), each of which was followed by a 980 millisecond repolarization to −67 millivolts. At the end of the 10 second pulse train stimulation, a 5 second hyperpolarization step to −100 millivolt (mV) was used to recover Nav1.8 from fast inactivation. The peak currents elicited by the 1st and 10th test pulses were used to determine IC50 values for resting inhibition and inactivated state inhibition. Nav1.5 current measurements on Qube® were obtained as follows: Nav1.5 currents were elicited with a 20 second 3 Hertz pulse train in the control condition (DMSO only) and after compound addition. The pulse train consisted of sixty 20 millisecond test pulses to 0 millivolt from a holding potential of −80 millivolt (mV). The average peak currents elicited by the last 3 test pulses were used to determine IC50 values for Nav1.5 inhibition.
The following buffers were used for the Qube® recordings: External buffer for Nav1.8 Qube® recording: 150 NaCl, 2 CaCl2, 5 KCl, 1 Mg Cl2, 10 HEPES, 12 Dextrose; External buffer for Qube® Nav1.5 recording: 120 N-Methyl-D-Glucamine, 40 NaCl, 1 KCl, 2.7 CaCl2, 5 HEPES, 0.5 MgCl2; and Internal buffer for Qube® recording: 120 CsF, 30 CsCl, 10 EGTA, 5 HEPES, 5 NaF, 2 MgCl2.
For all Qube® experiments offline analysis was used to determine percent inhibition as a function of drug concentration. IC50 values were determined by fitting to the Hill equation.
On the technique in general: In patch-clamp work, channel activity is measured electrically.
On to `NS(=O)(=O)c1cccc(NC(=O)c2cc(C(F)(F)F)cnc2N2CC3COC(C3)C2)c1` (centres unmarked) [Example 64, 2-(6-oxa-3-azabicyclo[3.2.1]octan-3-yl)-N-(3-sulfamoyl-phenyl)-5-(trifluoro-methyl)pyridine-3-carboxamide], for which the pIC50 is 5.67.

`O=C(Nc1ccc2c(c1)S(=O)(=O)C=C2)c1cc(C(F)(F)F)cnc1N1CCCCCC1` [Example 118, 2-(azepan-1-yl)-N-(1,1-dioxobenzothiophen-6-yl)-5-(trifluoromethyl)-pyridine-3-carboxamide] had a negative-log IC50 (pIC50) of 5.64.

On to `NS(=O)(=O)c1cccc(NC(=O)c2cc(OC(F)F)cnc2N2CCCC(F)(F)CC2)c1` [Example 172, 2-(4,4-difluoroazepan-1-yl)-5-(difluoromethoxy)-N-(3-sulfamoylphenyl)nicotinamide], for which the pIC50 is 8.12.

`COC1CCN(c2ncc(C(F)(F)F)cc2C(=O)Nc2cccc(S(N)(=O)=O)c2)CC1` [Example 66, 2-(4-methoxy-1-piperidyl)-N-(3-sulfamoylphenyl)-5-(trifluoromethyl) pyridine-3-carboxamide] showed a pIC50 of 5.58.

Regarding `CS(=O)(=O)c1cccc(NC(=O)c2cc(C(F)(F)F)cnc2N2CC3CCC(F)(F)C3C2)c1` (centres unmarked) [Example 96, 2-(4,4-difluoro-1,3,3a,5,6,6a-hexahydrocyclopenta[c]pyrrol-2-yl)-N-(3-methylsulfonylphenyl)-5-(trifluoromethyl)-pyridine-3-carboxamide], the negative logarithm of the IC50 (pIC50) was 7.40.

Compound `NS(=O)(=O)c1cccc(NC(=O)c2cc(C(F)(F)F)cnc2N2CC3CCC(C2)O3)c1` [Example 57, 2-(8-oxa-3-azabicyclo[3.2.1]octan-3-yl)-N-(3-sulfamoyl-phenyl)-5-(trifluoro-methyl)pyridine-3-carboxamide] had a negative logarithm of the IC50 (pIC50) of 6.24.

For the compound `COc1nc(N2CCCCCC2)c(C(=O)Nc2cccc(S(N)(=O)=O)c2)cc1C` [Example 155, 2-(azepan-1-yl)-6-methoxy-5-methyl-N-(3-sulfamoylphenyl)nicotinamide], the negative-log IC50 (pIC50) was 7.49.

On to `CC1CN(c2ncc(C(F)(F)F)cc2C(=O)Nc2cccc(S(N)(=O)=O)c2)CC(C)O1` (single isomer, unassigned) [Example 150, 2-[(2S,6S or 2R,6R)-2,6-dimethylmorpholin-4-yl]-N-(3-sulfamoylphenyl)-5-(trifluoromethyl) pyridine-3-carboxamide], for which the pIC50 was 6.38.

Regarding `Cc1cc(C)c(C(=O)Nc2cccc(S(N)(=O)=O)c2)c(N2CCCCCC2)n1` [Example 4, 2-(azepan-1-yl)-4,6-dimethyl-N-(3-sulfamoyl-phenyl)pyridine-3-carboxamide], the negative logarithm of the IC50 (pIC50) was 7.85.

As to `NS(=O)(=O)c1cccc(NC(=O)c2cc(C(F)(F)F)cnc2N2CCO[C@H](C(F)(F)F)C2)c1` [Example 140, N-(3-sulfamoylphenyl)-5-(trifluoromethyl)-2-[(2S)-2-(trifluoro-methyl)--morpholin-4-yl]pyridine-3-carboxamide], the pIC50 was 7.08.

`COC(=O)N1CCN(c2ncc(C(F)(F)F)cc2C(=O)Nc2cccc(S(N)(=O)=O)c2)CC1` [Example 74, methyl 4-[3-[(3-sulfamoylphenyl)carbamoyl]-5-(trifluoro-methyl)-2-pyridyl]-piperazine-1-carboxylate] had a negative logarithm of the IC50 (pIC50) of 5.00.

Compound `CC(C)Cc1cnc(N2CCCCC2)c(C(=O)Nc2cccc(S(N)(=O)=O)c2)c1` [Example 153, 5-isobutyl-2-(piperidin-1-yl)-N-(3-sulfamoylphenyl)nicotinamide] had a negative logarithm of the IC50 (pIC50) of 5.65.

With `NS(=O)(=O)c1cccc(NC(=O)c2cc(C(F)(F)F)cnc2N2CCC(F)(F)C2)c1` [Example 60, 2-(3,3-difluoropyrrolidin-1-yl)-N-(3-sulfamoyl-phenyl)-5-(trifluoromethyl) pyridine-3-carboxamide], the pIC50 is 6.13.

Compound `NS(=O)(=O)c1cccc(NC(=O)c2cc(C(F)(F)F)cnc2N2CC3CCC(C2)O3)c1` [Example 52, 2-(8-oxa-3-azabicyclo[3.2.1]octan-3-yl)-N-(3-sulfamoyl-phenyl)-5-(trifluoro-methyl)pyridine-3-carboxamide] gave a pIC50 of 6.52.

In the case of `NS(=O)(=O)c1cccc(NC(=O)c2cc(C(F)(F)F)cnc2N2CCCO[C@@H](C(F)(F)F)C2)c1` [Example 144, (R)—N-(3-sulfamoylphenyl)-5-(trifluoromethyl)-2-(2-(trifluoromethyl)-1,4-oxazepan-4-yl) nicotinamide], the negative-log IC50 (pIC50) is 6.30.

In turn, `NS(=O)(=O)c1cccc(NC(=O)c2cc(C(F)(F)F)cnc2N2CCCC3(CC2)CC3)c1` [Example 79, 2-(6-azaspiro[2.6]nonan-6-yl)-N-(3-sulfamoyl-phenyl)-5-(trifluoro-methyl)nicotinamide] had a pIC50 of 8.00.

`COC(=O)C1CCCCN(c2ncc(C(F)(F)F)cc2C(=O)Nc2cccc(S(N)(=O)=O)c2)C1` (centres unmarked) [Example 67, methyl 1-[3-[(3-sulfamoylphenyl)carbamoyl]-5-(trifluoro-methyl)-2-pyridyl]-azepane-3-carboxylate]: the pIC50 is 5.53.

`NS(=O)(=O)c1cccc(NC(=O)c2cc(C(F)(F)F)cnc2N2C[C@@H]3[C@H](C2)C(F)(F)C3(F)F)c1` [Example 133, N-(3-sulfamoylphenyl)-2-[(1R,5S)-6,6,7,7-tetrafluoro-3-azabicyclo-[3.2.0]heptan-3-yl]-5-(trifluoromethyl)-pyridine-3-carboxamide] gave a pIC50 of 7.68.

Regarding `NC(=O)c1cccc(NC(=O)c2cc(C(F)(F)F)cnc2N2CCCCCCC2)c1` [Example 107, 2-(azocan-1-yl)-N-(3-carbamoylphenyl)-5-(trifluoromethyl)-pyridine-3-carboxamide], the pIC50 was 7.14.

In turn, `Cc1nc(N2CCCCCC2)c(C(=O)Nc2cccc(S(N)(=O)=O)c2)cc1C(F)(F)F` [Example 168, 2-(azepan-1-yl)-6-methyl-N-(3-sulfamoylphenyl)-5-(trifluoromethyl)nicotinamide] showed a negative-log IC50 (pIC50) of 8.49.

The compound `Cc1ccc(C(=O)Nc2cccc(C(N)=O)c2)c(N2CCCC(F)(F)CC2)n1` [Example 75, N-(3-carbamoylphenyl)-2-(4,4-difluoroazepan-1-yl)-6-methylnicotinamide] had a pIC50 of 7.80.

`CC(C)(C)c1ccc(C(=O)Nc2cccc(S(C)(=O)=O)c2)c(N2CCCCC2)n1` [Example 41, 6-tert-butyl-N-(3-methylsulfonylphenyl)-2-(1-piperidyl)pyridine-3-carboxamide] showed a negative logarithm of the IC50 (pIC50) of 5.33.

Take `NS(=O)(=O)c1cccc(NC(=O)c2cc(F)cnc2N2CCCCC2)c1` [Example 6, 5-fluoro-2-(1-piperidyl)-N-(3-sulfamoyl-phenyl)pyridine-3-carboxamide]: the negative logarithm of the IC50 (pIC50) is 5.08.

In turn, `NC(=O)c1cccc(NC(=O)c2cc(C(F)(F)C(F)(F)F)cnc2N2CCCCCC2)c1` [Example 167, 2-(azepan-1-yl)-N-(3-carbamoylphenyl)-5-(1,1,2,2,2-penta-fluoroethyl)pyridine-3-carboxamide] gave a pIC50 of 7.07.

Regarding `COC1CCCN(c2ncc(C(F)(F)F)cc2C(=O)Nc2cccc(S(N)(=O)=O)c2)CC1` (centres unmarked) [Example 49, 2-(4-methoxyazepan-1-yl)-N-(3-sulfamoyl-phenyl)-5-(trifluoro-methyl)pyridine-3-carboxamide], the pIC50 is 6.73.

`N#Cc1ccc(NC(=O)c2cc(C(F)(F)F)cnc2N2CCCCCC2)cc1` [Example 22, 2-(azepan-1-yl)-N-(4-cyanophenyl)-5-(trifluoromethyl)pyridine-3-carboxamide] showed a pIC50 of 6.33.
